The values that follow are results of earlier work, collected in patent publication US20050281896A1, “Nutritional composition for increasing creatine uptake in skeletal muscle” (priority 2004, published 2005).

Molecules are shown by their SMILES.

Data set [1] deals with angiotensin converting enzyme (ACE) (Homo sapiens, UniProt P12821).
For data set [2] the following is noted: in vivo.

Sequence of angiotensin converting enzyme (ACE) (P12821 30-1306, species assumed): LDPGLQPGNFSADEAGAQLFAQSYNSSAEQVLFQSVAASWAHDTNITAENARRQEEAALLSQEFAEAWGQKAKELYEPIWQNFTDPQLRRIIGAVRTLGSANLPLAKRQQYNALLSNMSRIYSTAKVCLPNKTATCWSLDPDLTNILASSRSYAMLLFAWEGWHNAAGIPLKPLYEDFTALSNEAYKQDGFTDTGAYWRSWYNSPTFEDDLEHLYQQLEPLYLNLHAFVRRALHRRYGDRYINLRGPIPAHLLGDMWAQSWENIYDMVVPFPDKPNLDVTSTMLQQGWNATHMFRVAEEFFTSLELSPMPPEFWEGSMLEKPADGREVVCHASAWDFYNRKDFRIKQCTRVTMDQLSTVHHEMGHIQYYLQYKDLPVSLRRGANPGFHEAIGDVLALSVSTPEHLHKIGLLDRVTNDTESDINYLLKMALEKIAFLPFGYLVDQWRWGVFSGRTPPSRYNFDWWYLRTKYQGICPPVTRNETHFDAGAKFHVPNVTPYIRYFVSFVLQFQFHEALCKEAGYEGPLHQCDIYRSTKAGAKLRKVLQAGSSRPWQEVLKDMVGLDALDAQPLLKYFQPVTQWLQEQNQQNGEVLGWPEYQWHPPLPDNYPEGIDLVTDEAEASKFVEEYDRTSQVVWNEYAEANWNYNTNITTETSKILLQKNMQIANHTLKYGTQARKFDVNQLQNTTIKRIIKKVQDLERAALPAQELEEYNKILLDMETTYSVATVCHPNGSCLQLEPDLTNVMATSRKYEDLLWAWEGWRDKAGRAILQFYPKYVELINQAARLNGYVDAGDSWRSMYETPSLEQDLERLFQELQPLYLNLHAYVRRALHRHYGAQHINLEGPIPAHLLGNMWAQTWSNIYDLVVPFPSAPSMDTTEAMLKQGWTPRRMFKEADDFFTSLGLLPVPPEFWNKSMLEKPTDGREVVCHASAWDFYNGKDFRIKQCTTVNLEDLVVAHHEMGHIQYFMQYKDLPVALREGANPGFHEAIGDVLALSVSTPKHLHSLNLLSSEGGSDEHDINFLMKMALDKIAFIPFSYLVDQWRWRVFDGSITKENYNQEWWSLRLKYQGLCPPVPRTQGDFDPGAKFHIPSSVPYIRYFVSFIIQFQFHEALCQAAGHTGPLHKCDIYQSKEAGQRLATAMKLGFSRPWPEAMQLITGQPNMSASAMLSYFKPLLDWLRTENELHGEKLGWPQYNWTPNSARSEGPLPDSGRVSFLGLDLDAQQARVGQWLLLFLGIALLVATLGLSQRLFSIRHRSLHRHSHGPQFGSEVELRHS

As to `O=C(O)CCCC[C@@H]1CCSS1` (stereo in doubt) [alpha lipoic acid, 1,2-dithiolane-3-pentanoic acid], the “increase of the metabolic clearance rate of glucose” value (diabetics) was 50%. In addition, the “body's utilization of blood sugar” value (type II diabetics) is on record as “significantly increase”.
Regarding `O=C(/C=C/c1ccc(O)c(O)c1)c1ccc(O)cc1O` [butein, 3,4,2′,4′-tetrahydroxychalcone], the “effect on angiotensin converting enzyme (ACE)” value in data set [1] was “inhibition”. The “effect on blood pressure” value in data set [2] is “hypotensive effects”.
